Reference: article PMC8500670, “A selective WDR5 degrader inhibits acute myeloid leukemia in patient-derived mouse models” (Science translational medicine, 2021)
Where two headings read alike, the source gives them in different places.

Key:
Experiment in all cases: biochemical
PRMT7 = biological target: T1, PRMT7 (Homo sapiens, UniProt Q9NVM4); parameters: protein methyltransferase selectivity panel, enzyme activity relative to DMSO controls, single concentration in duplicate; details: Substrate:=GST-GAR
T1 sequence (Q9NVM4 1-692): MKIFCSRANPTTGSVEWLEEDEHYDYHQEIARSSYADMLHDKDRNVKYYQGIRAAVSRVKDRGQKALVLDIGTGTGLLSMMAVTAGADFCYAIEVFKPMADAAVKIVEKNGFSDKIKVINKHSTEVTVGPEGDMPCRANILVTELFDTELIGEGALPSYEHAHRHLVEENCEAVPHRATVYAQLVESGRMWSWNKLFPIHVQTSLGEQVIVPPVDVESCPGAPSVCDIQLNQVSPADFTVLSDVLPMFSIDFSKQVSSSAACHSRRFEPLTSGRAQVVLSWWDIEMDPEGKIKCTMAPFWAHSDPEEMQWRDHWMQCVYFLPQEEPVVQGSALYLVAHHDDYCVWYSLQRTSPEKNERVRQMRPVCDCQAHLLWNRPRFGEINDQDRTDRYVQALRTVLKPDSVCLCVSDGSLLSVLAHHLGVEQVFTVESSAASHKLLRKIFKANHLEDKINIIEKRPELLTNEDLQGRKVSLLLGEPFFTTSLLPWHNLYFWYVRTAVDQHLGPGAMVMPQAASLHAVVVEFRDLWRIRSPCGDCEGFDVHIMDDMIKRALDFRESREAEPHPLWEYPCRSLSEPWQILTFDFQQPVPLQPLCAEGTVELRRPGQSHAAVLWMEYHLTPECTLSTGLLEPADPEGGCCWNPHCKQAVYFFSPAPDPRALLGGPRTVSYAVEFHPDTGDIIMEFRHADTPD
Procedure: (§1) We next assessed selectivity of MS67 against 22 protein methyltransferases (table S2) and a broad panel of common drug targets including 45 kinases (table S3) and 44 G protein–coupled receptors (GPCR), ion channels, and transporters (table S4). […] We subsequently determined that MS67 had moderate binding affinity (Ki = 1.0 ± 0.8 μM) to Sigma 2 receptor (fig. S10).

G9a = biological target: T2, G9a (Homo sapiens, UniProt Q96KQ7); parameters: protein methyltransferase selectivity panel, enzyme activity relative to DMSO controls, single concentration in duplicate; details: Substrate:=Histone H3 1-21
T2 construct: gene EHMT2
T2 sequence (Q96KQ7 1-1210): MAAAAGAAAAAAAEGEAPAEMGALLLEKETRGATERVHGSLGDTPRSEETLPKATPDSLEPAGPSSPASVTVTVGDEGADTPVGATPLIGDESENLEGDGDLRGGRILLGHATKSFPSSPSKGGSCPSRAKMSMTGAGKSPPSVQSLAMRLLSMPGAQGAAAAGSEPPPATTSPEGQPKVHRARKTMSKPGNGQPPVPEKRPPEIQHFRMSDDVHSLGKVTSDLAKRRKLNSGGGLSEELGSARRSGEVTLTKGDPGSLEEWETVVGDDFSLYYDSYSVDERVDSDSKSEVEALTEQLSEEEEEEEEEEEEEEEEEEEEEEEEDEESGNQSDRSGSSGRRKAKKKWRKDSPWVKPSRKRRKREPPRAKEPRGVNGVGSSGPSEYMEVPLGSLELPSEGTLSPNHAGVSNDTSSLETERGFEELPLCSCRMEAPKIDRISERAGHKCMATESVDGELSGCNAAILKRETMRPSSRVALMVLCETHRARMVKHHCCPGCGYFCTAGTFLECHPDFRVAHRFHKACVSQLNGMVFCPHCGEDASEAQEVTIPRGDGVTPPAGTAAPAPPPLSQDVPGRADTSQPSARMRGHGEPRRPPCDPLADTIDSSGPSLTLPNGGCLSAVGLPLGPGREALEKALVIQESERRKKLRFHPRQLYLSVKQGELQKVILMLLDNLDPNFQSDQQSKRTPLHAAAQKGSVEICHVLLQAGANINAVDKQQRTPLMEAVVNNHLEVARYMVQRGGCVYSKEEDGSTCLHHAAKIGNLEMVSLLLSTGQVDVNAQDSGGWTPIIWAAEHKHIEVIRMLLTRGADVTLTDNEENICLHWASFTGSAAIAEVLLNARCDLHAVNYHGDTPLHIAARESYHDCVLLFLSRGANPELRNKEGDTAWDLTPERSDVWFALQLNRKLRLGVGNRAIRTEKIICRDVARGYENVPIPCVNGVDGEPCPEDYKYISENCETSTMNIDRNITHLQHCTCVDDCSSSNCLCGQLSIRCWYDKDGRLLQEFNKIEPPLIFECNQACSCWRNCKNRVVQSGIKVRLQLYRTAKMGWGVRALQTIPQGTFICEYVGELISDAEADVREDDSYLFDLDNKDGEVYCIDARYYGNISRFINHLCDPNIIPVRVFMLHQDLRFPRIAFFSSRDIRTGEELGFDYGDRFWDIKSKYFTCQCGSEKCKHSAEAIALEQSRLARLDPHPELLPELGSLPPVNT
Procedure: as §1

SUV39H1 = biological target: T3, SUV39H1 (Homo sapiens, UniProt O43463); parameters: protein methyltransferase inhibition panel, single concentration, duplicate
T3 sequence (O43463 1-412): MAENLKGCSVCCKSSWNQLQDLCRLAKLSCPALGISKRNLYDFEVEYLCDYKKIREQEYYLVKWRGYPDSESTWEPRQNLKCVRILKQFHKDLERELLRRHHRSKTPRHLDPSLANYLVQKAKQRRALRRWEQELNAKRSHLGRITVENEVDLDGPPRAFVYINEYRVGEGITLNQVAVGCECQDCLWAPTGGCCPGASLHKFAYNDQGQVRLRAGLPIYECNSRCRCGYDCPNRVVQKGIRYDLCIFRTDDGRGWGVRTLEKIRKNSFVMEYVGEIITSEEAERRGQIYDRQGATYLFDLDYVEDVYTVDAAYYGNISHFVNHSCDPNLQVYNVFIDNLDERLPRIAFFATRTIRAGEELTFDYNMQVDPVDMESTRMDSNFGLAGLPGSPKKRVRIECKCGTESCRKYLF
Procedure: as §1

[1] = read-out: Enzyme % Activity (relative to DMSO controls) / MS67 / 10 / Data 1:
[2] = read-out: Enzyme % Activity (relative to DMSO controls) / MS67 / 10 / Data 2:

## Cc1ncsc1-c1ccc([C@H](C)NC(=O)[C@@H]2C[C@@H](O)CN2C(=O)[C@@H](NC(=O)CNC(=O)c2ccc(F)c(-c3ccc(N4C[C@@H](C)N(C)[C@@H](C)C4)c(NC(=O)c4c[nH]c(=O)cc4C(F)(F)F)c3)c2)C(C)(C)C)cc1 [MS67]
PRMT7; [1]
  remaining activity at 10 µM: 100%
PRMT7; [2]
  remaining activity at 10 µM: 103%
G9a; [1]
  remaining activity at 10 µM: 93%
G9a; [2]
  remaining activity at 10 µM: 90.9%
SUV39H1
  inhibition at 10 µM: < 10%
